A short description of data set [1]: In vitro metabolism: human liver microsome (HLM) half-life. Type of data set: in vitro ADME. Conditions: human liver microsomes, pH 7.4, human liver microsomes. As for the experimental part: In vitro metabolism experiments were carried out in the hepatic microsomal fractions from man. Transplant-quality human liver tissue was obtained from the International Institute for the Advancement of Medicine (Exton, Pa., USA). Microsomes were prepared according to the method described in Biochemical Pharmacology, […], 48, 2147-2156 and stored at −80° C. The concentrations of protein and cytochrome P450 were determined by standard methods described in Journal of Biological Chemistry, 1951, 193, 265-275 and Journal of Biological Chemistry, 1964, 239, 2370-2378.
Microsomal incubations (1.5 ml) were prepared containing 0.5 μM cytochrome P450, 200 mM phosphate buffer (pH 7.4), 0.1 M MgCl2, 0.1 M isocitric acid, 1 unit/ml isocitrate dehydrogenase and 20 mM β-NADP. Compounds under study were added after a 5 min preincubation at 37° C. to give an initial substrate concentration of 1 μM. The mixture was incubated at 37° C. and samples (100 μl) were removed for analysis for up to 60 min. Metabolism in samples was terminated by the addition of NaOH (0.1 M) containing an internal standard (chosen to have similar physicochemical properties to compounds under study), followed by extraction into ethyl acetate (2 ml). The extracts were evaporated to dryness and analysed by LC-MS/MS (Hewlett Packard HP1100 binary pump, Hypersil HS100 C18, 5 cm by 4.6 mm internal diameter, 5 μm column using a mobile phase of 2 mM ammonium acetate in 90:10 methanol/water, aqueous portion adjusted to pH 4 with glacial acetic acid, and a flowrate of 1 ml/min). The mass spectrometer was a Sciex API 2000 with TurbolonSpray interface using a positive ion multiple reaction monitoring (MRM) detection mode. Nitrogen was used as curtain, nebuliser, TurbolonSpray and collision gases, and the TurbolonSpray temperature was 100° C. Typical voltages were as follows: IS=5.2 kV; RNG=380 V; Q0=−10 V; IQ1=−11 V; ST=−15;RO1=−11 V; MU=gain adjusted as per Sciex user manual. Collision energy was 55 eV for high MRM, OR=65 V. Dwell time was 200 msec with a 50 msec pause. Data was acquired using MSExpress v 1.1 and processed using Macquan 1.5 (PE Sciex)). Disappearance rate constants (k) in human microsomal preparations were determined by linear regression of the log ratio (compound under study/internal standard) versus time. The in vitro human microsomal half-lives were determined according to the equation […]=In 2/k.
For orientation: Microsomes from liver hold many membrane-bound enzymes, among them those of drug oxidation.

The target in another data set is T1, cGMP PDE5 (Homo sapiens, UniProt O76074).
T1 construct: The required PDE enzymes were isolated from a variety of sources, including human corpus cavernosum, human platelets; from tissue; host or cells: human corpus cavernosum tissue or human platelets
As to the kind of experiment: In vitro cGMP PDE5 inhibitory activity (IC50). The data set is classed as biochemical. The procedure: The compounds of the present invention are potent and selective cGMP PDE5 inhibitors. In vitro PDE inhibitory activities against cyclic guanosine 3′,5′-monophosphate (cGMP) and cyclic adenosine 3′,5′-monophosphate (cAMP) phosphodiesterases were determined by measurement of their IC50 values (the concentration of compound required for 50% inhibition of enzyme activity).
The required PDE enzymes were isolated from a variety of sources, including human corpus cavernosum, human platelets, human cardiac ventricle, human skeletal muscle and human and canine retina, essentially by the method of W. J. Thompson and M. M. Appleman (Biochem., 1971, 10, 311). In particular, the cGMP-specific PDE (PDE5) and the cGMP-inhibited cAMP PDE (PDE3) were obtained from human corpus cavernosum tissue or human platelets; the cGMP-stimulated PDE (PDE2) was obtained from human corpus cavernosum or human platelets; the calcium/calmodulin (Ca/CAM)-dependent PDE (PDE1) from human cardiac ventricle; the cAMP-specific PDE (PDE4) from recombinant clone or human skeletal muscle; and the photoreceptor PDE (PDE6) from canine or human retina. Phosphodiesterases 7-11 were generated from full length human recombinant clones transfected into SF9 cells.
Assays were performed either using a modification of the “batch” method of W. J. Thompson et al. (Biochem., 1979, 18, 5228) or using a scintillation proximity assay for the direct detection of AMP/GMP using a modification of the protocol described by Amersham pic under product code TRKQ7090/7100. In summary, the effect of PDE inhibitors was investigated by assaying a fixed amount of enzyme in the presence of varying inhibitor concentrations and low substrate, (cGMP or cAMP in a 3:1 ratio unlabelled to [^3H]-labeled at a conc ˜½ Km) such that IC50 ≅Ki. The final assay volume was made up to 102 μl with assay buffer [20 mM Tris-HCl pH 7.4, 5 mM MgCl2, 1 mg/ml bovine serum albumin]. Reactions were initiated with enzyme, incubated for 30-60 min at 30° C. to give <30% substrate turnover and terminated with 50 μl yttrium silicate SPA beads (containing 3 mM of the respective unlabelled cyclic nucleotide for PDEs 3, 9 and 11). Plates were resealed and shaken for 20 min, after which the beads were allowed to settle for 30 min in the dark and then counted on a TopCount plate reader (Packard, Meriden, Conn.). Radioactivity units were converted to % activity of an uninhibited control (100%), plotted against inhibitor concentration and inhibitor IC50 values obtained using the ‘Fit Curve’ Microsoft Excel extension or inhouse equivalent.

Setting [2] is: bound stated, read-out: HLM half-lifes.
[3] abbreviates: initial substrate concentration 1 μM, 37° C., Table 2, read-out: HLM t1/2.
[4] abbreviates: bounds for groups of Examples, read-out: IC50 values for the PDE5 enzyme.
[5] abbreviates: in vitro cGMP PDE5 inhibitory activity, Table 1, read-out: IC50.

Where two headings read alike, the source gives them in different places.

Consider `CCCc1nn(C)c2c(=O)[nH]c(-c3cc(S(C)(=O)=O)ccc3OCC)nc12` [Example 1, 5-[2-Ethoxy-5-(methylsulfonyl)phenyl]-1-methyl-3-propyl-1,6-dihydro-7H-pyrazolo[4,3-d]pyrimidin-7-one], for which the melting point was in the range of 235 to 236 °C. In data set [1] (setting [2]), the half-life at 1 μM was not below 30 min. Also, the half-life at 1 μM in data set [1] (setting [3]) was found to be 67 min. In addition, at cGMP PDE5 (setting [4]), the IC50 is less than 10 nM. The IC50 at cGMP PDE5 (setting [5]) was 5.6 nM.
`CCCOc1ccc(S(C)(=O)=O)cc1-c1nc2c(CC)nn(C[C@@H]3CCCN3C)c2c(=O)[nH]1` [Example 18, 3-Ethyl-1-{[(2S)-1-methylpyrrolidinyl]methyl}-5-[5-(methylsulfonyl)-2-propoxyphenyl]-1,6-dihydro-7H-pyrazolo[4,3-d]pyrimidin-7-one] gave a melting point of 211 to 215 °C. The half-life at 1 μM in data set [1] (setting [2]) was not below 30 min. The IC50 at cGMP PDE5 (setting [4]) was less than 10 nM. The IC50 on cGMP PDE5 (setting [5]) came to 5.4 nM.
For `CCCCOc1ccc(S(C)(=O)=O)cc1-c1nc2c(CC)n(CCOC)nc2c(=O)[nH]1` [Example 2, 5-[2-Butoxy-5-(methylsulfonyl)phenyl]-3-ethyl-2-(2-methoxyethyl)-2,6-dihydro-7H-pyrazolo[4,3-d]pyrimidin-7-one], in that order: 174 to 176 °C, not below 30 min, less than 10 nM and 6.5 nM.
Take `CCCOc1ccc(S(C)(=O)=O)cc1-c1nc2c(CC)n(CC3CC3)nc2c(=O)[nH]1` [Example 12, 2-(Cyclopropylmethyl)-3-ethyl-5-[5-(methylsulfonyl)-2-propoxyphenyl]-2,6-dihydro-7H-pyrazolo[4,3-d]pyrimidin-7-one]: the melting point was 233 to 234 °C. The half-life at 1 μM in data set [1] (setting [2]) was not below 30 min. For the same molecule, in data set [1] (setting [3]), the half-life at 1 μM is more than 120 min. The IC50 on cGMP PDE5 (setting [4]) is less than 10 nM. Moreover, at cGMP PDE5 (setting [5]), the IC50 was 1 nM.
Molecule `CCc1c2nc(-c3cc(S(C)(=O)=O)ccc3OCC(C)C)[nH]c(=O)c2nn1Cc1nccn1C` [Example 9, 3-Ethyl-5-[2-isobutoxy-5-(methylsulfonyl)phenyl]-2-[(1-methyl-1H-imidazol-2-yl)methyl]-2,6-dihydro-7H-pyrazolo[4,3-d]pyrimidin-7-one] displayed a melting point of 253 to 254 °C. In data set [1] (setting [2]), the half-life at 1 μM is not below 30 min. For the same molecule, the IC50 on cGMP PDE5 (setting [4]) was less than 10 nM. In addition, at cGMP PDE5 (setting [5]), the IC50 came to 3.95 nM.
For the molecule `CCCOc1ccc(S(C)(=O)=O)cc1-c1nc2c(CC)nn(Cc3ccccn3)c2c(=O)[nH]1` [Example 11, 3-Ethyl-5-[5-(methylsulfonyl)-2-propoxyphenyl]-1-(2-pyridinylmethyl)-1,6-dihydro-7H-pyrazolo[4,3-d]pyrimidin-7-one], in data set [1] (setting [2]), the half-life at 1 μM was not below 30 min. Also, the IC50 on cGMP PDE5 (setting [4]) was less than 10 nM; on cGMP PDE5 (setting [5]), 1.4 nM.
`CCc1c2nc(-c3cc(S(C)(=O)=O)ccc3OCC(C)C)[nH]c(=O)c2nn1C[C@H]1CCCN1C` [Example 14, 3-Ethyl-5-[2-isobutoxy-5-(methylsulfonyl)phenyl]-2-{[(2R)-1-methylpyrrolidinyl]methyl}-2,6-dihydro-7H-pyrazolo[4,3-d]pyrimidin-7-one] registered a melting point of 178 to 180 °C. The half-life at 1 μM in data set [1] (setting [2]) is not below 30 min. The IC50 at cGMP PDE5 (setting [4]) is less than 10 nM. Besides, the IC50 at cGMP PDE5 (setting [5]) stood at 8.3 nM.
For `CCCCOc1ccc(S(C)(=O)=O)cc1-c1nc2c(CC)n(C3CN(C(C)C)C3)nc2c(=O)[nH]1` [Example 19, 5-[2-Butoxy-5-(methylsulfonyl)phenyl]-3-ethyl-2-(1-isopropyl-3-azetidinyl)-2,6-dihydro-7H-pyrazolo[4,3-d]pyrimidin-7-one], the melting point lay within 209 to 213 °C. For the same molecule, in data set [1] (setting [2]), the half-life at 1 μM is not below 30 min. For the same molecule, at cGMP PDE5 (setting [4]), the half-inhibitory concentration (IC50) is less than 10 nM. Besides, the IC50 at cGMP PDE5 (setting [5]) came out at 6.6 nM.

As a reminder, the IC50 is the concentration that gives 50% inhibition. The melting point is the temperature, or range, at which the solid turns liquid.
